From US10725042B2, “Methods of diagnosing and treating cancer” (Case Western Reserve University, priority 2012, dated 2020)

Tests used:
H460 cells = test: Clonogenic survival assay, H460 cells; format: cell-based; conditions: Homo sapiens, NCI-H460, read-out: IC50 values for pemetrexed
Procedure: Tumor cells (500-2000/dish) were plated and treated with pemetrexed (0-400 nM), 5-fluorouracil (0-20 μM), temozolomide (0-1500 μM), or cisplatin (0-40 μM). After 7 days, surviving colonies were stained with methylene blue for 30 min at room temperature and the colonies containing more than 50 cells were counted to generate survival curves.

UDG−/− cells = test: Replication foci stained with CldU and IdU, UDG−/− cells; format: cell-based, human; conditions: pemetrexed 25 nM, n=10 cells
Procedure: DNA replication sites were visualized by incorporation of chlorodeoxyuridine (CldU) and iododeoxyuridine (IdU) into DNA. UDG^−/− and UDG^+/+ cells were labeled with 100 μM CldU (ICN, Irvine, Calif.) or IdU (Sigma Chemical Co., St. Louis, Mo.) for 45 min at different time intervals. Cells were washed with PBS, fixed with cold 70% ethanol, and stored at 4° C. For antibody staining, the ethanol was removed, and 100% methanol was added for 5 min. Cells were washed twice with PBS and incubated with 1.5 M HCl for 30 min to denature the DNA. Cells were washed with PBS, permeabilized with 0.5% Tween 20 in PBS for 5 min, and then incubated in 5% BSA (Sigma Chemical Co.) and in PBS for 20 min to reduce nonspecific binding. Primary antibodies CldU (rat anti-BrdU; Accurate Chemical and Science Co., Westbury, N.Y.) and IdU (mouse anti-BrdU; BD Biosciences) were diluted in 1% BSA buffer, added to the slides, and incubated in a humid environment for 2 hrs. Slides were washed with PBS-Tween 20 and then in a high-salt buffer (200 mM NaCl, 0.2% Tween 20, and 0.2% NP-40 in PBS) for 15 min. The samples were incubated with secondary antibodies for 1 h. Finally, slides were washed with PBSTween 20, mounted with Vectashield antifade mounting medium (Vector Laboratories, Inc., Burlingame, Calif.), and stored at 4° C. […] Fluorescence density of CldU or IdU was quantified by NIH image J software.

[1] = tested on: A549 lung cancer xenografts; test: A549 xenograft tumors in nude mice; format: in vivo; conditions: A549 tumours; pemetrexed 150 mg/kg, MX 4 mg/kg, i.p. daily for 5 days
Procedure: H460 or A549 tumor cells (5×10^6) were injected into bilateral flanks of female athymic NCr (nu/nu) mice (6 weeks old). When the tumor volumes reached 100-150 mm3, mice were divided into control and treatment groups (6-9 mice/group). Nude mice carrying tumors were treated with pemetrexed (150 mg/kg) alone, MX (4 mg/kg) alone or the combination of the two agents, by daily intraperitonial injection (i.p.) for 5 consecutive days. Tumor measurements were taken every 2 days. Tumor responses were quantified by tumor volume.

A549 siUNG cells = test: Colony survival assay, A549 siUNG cells; format: cell-based, human
Procedure: (§1) For cells in suspension, colony survival was determined by crystal violet staining of colonies formed after 10-day exposure of 5×10^3 cells to pemetrexed in soft agar. For adherent cells, colony survival was determined by methylene blue staining of colonies formed after 10-day exposure of 100 cells to pemetrexed in 6-well culture dishes. Only colonies containing ≥50 cells were counted. Data points represent percent of colonies relative to untreated control averaged over 3 experiments.
(§2) UNG directed shRNA and siRNA plasmids were purchased from Origene. Transfection was carried out according to manufacturer specifications. Stably transfected clones (shRNA) were selected with puromycin with subsequent expansion of a well-isolated colony of cells.

H1975 cells = test: Colony survival assay, H1975 parental cells; format: cell-based; conditions: Homo sapiens, NCI-H1975, read-out: pemetrexed IC50
Procedure: as §1

H1975 66 shUNG cells = test: Colony survival assay, H1975 66 shUNG cells; format: cell-based, human
Procedure: as §1, §2

H1975 wild type cells = test: PCNA dissociation by bi-parametric flow cytometry, H1975 wild type cells; format: cell-based, human; conditions: treated samples
Procedure: Propidium iodine (PI) staining of methanol fixed cells was for cell cycle determinations. Where indicated, FITC labeled PCNA antibody (PCNA-FITC, Abcam) was added for PCNA detection. Uni-parameter (PI-only) and dual-parameter (PI+PCNA-FITC) analysis was performed on a Coulter flow cytometer (EPICS-XL-MCL). Cell cycle histograms (PI) and PCNA dot plots (PCNA-FITC) were de-convoluted from ≥20,000 events using FlowJo software.
Prolonged S-phase arrest is known to result in DNA DSB formation due to the collapse of stalled replication forks. We evaluated the stability of the DNA replication fork in pemetrexed treated lung cancer cells with native and reduced levels of UNG protein. Nucleotide incorporation experiments using CldU and IdU indicate decreased postpemetrexed treatment nucleotide incorporation (data not shown). […] Using bi-parametric flow cytometry we measured the dissociation of the replication fork processivity factor, PCNA at the single cell level in H1975 cells expressing UNG directed shRNA. Similar assays have been utilized to detect replication fork disassembly following etoposide and hydroxyurea exposure. PCNA dissociation was determined by the percentage of cells in S phase having low PCNA (red box, FIG. 11d). […] As a complimentary experiment, we examined the expression of chromatin-bound PCNA after pemetrexed treatment by western blot of chromatin cellular extracts.

[2] = tested on: AP sites in DNA of H460 cells; test: AP site assay (ARP), H460 cells; format: cell-based, human; conditions: pemetrexed 0-400 nM, MX 6 mM, 24 hrs
Procedure: The number of AP sites was measured using ARP (aldehyde reactive probe) reagent. The assay was performed as previously described. Briefly, cells (2×10^6) were collected after drug treatment and DNA was extracted. DNA (10 μg) was incubated with 15 μl of 1 mM ARP (Dojindo Laboratories, Kumamoto, Japan), and then precipitated and washed with ice-cold ethanol. The ARP-labeled DNA was then heat-denatured at 100° C. for 5 min, quickly chilled on ice and mixed with an equal volume of 2 M ammonium acetate. The DNA was then immobilized on a BA-S 85 nitrocellulose membrane (Schleicher and Schuell, Dassel, Germany) using a minifold II vacuum filter device (Schleicher and Schuell, Dassel, Germany). The membrane was incubated with 0.25% BSA-PBS containing streptavidin-conjugated horseradish peroxidase (BioGenex, SanRamon, Calif.) at room temperature for 40 min with gentle shaking. ARP-labeled AP sites were visualized by chemiluminescence (Amersham Corp, Piscataway, N.J.) followed by quantitative densitometry using NIH Image J software.

[3] = treatment of lung cancer; cited from earlier work

## Nc1nc2[nH]cc(CCc3ccc(C(=O)N[C@@H](CCC(=O)O)C(=O)O)cc3)c2c(=O)[nH]1 [pemetrexed]
H460 cells
  IC50: 110 nM
UDG−/− cells; 6-hr sample
  ratio of IdU to CldU (fluorescence density): 0.1±0.04
UDG−/− cells; 18-hr sample
  ratio of IdU to CldU (fluorescence density): 0.01±0.005
[1]
  antitumour activity: moderately sensitive
A549 siUNG cells; A549 siUNG vs parental
  sensitivity of A549 siRNA cells compared to parental cells: 7 fold
A549 siUNG cells; Homo sapiens, A549 siUNG, colony survival, read-out: pemetrexed IC50
  IC50: 60.5 nM
H1975 cells
  IC50: 777 nM
H1975 66 shUNG cells; H1975 shUNG clones vs parental
  sensitivity of shRNA targeted H1975 clones compared to parental cells: > 5 fold
H1975 66 shUNG cells; Homo sapiens, NCI-H1975, H1975 66 shUNG, colony survival, read-out: pemetrexed IC50
  IC50: 131 nM
H1975 wild type cells
  cells in S phase having low PCNA: less than 1%
[2]
  ARP-detected AP sites: increased as the concentration of pemetrexed increased
[3]
  response rate: 30-40%
